Assay results reported in PubChem BioAssay (NCI).
Several values for one entry are separate records, joined by “and”; a condition that tells them apart may be missing. Equal entries are not always repeated.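 Results reflect a 48-hour exposure of cells in 96-well plates to compound at five concentrations. GI50 = concentration required for 50% inhibition of growth. Definition used: TGI = concentration required for complete inhibition of growth.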

Key:
Test in all cases: NCI-60 cell line screen, 48 h
[1] = test system: EKVX NSCLC
[2] = test system: MALME-3M melanoma
[3] = test system: OVCAR-4 ovarian
[4] = test system: PC-3 prostate
[5] = test system: RXF 393 renal
[6] = test system: SF-295 CNS
[7] = test system: SK-MEL-28 melanoma
[8] = test system: SK-OV-3 ovarian
[9] = test system: SN12C renal
[10] = test system: UO-31 renal

CN1C(=O)C(N=Nc2ccc([N+](=O)[O-])cc2)SC1=S (stereo unspecified)
GI50 [1]: 2.82 µM and 8.54 µM | TGI [1]: 28 µM and 96.9 µM | GI50 [2]: 3.26 µM and 18.5 µM | TGI [2]: 19.5 µM and > 100 µM | GI50 [3]: 6.35 µM and 9.5 µM | TGI [3]: > 100 µM | GI50 [4]: 1.6 µM and 4.65 µM | TGI [4]: > 100 µM | GI50 [5]: 16.6 µM and 12.5 µM | TGI [5]: 97.4 µM and 77.5 µM | GI50 [6]: 1.62 µM and 3.04 µM | TGI [6]: 6.27 µM and 24.9 µM | GI50 [7]: 11.6 µM and 27.2 µM | TGI [7]: > 100 µM | GI50 [8]: 7.51 µM and 11.2 µM | TGI [8]: 74.4 µM and 51.5 µM | GI50 [9]: 4.39 µM and 9.34 µM | TGI [9]: > 100 µM and 75.9 µM | GI50 [10]: 1.26 µM and 3.55 µM | TGI [10]: 8.82 µM and 74.7 µM

COc1cc2c(Nc3ccc(-c4ccc(N)cc4)cc3)ncnc2c(OC)c1OC
GI50 [1]: 5.4 µM | TGI [1]: > 100 µM | GI50 [2]: 22.4 µM | TGI [2]: > 92.2 µM | GI50 [3]: 6.01 µM | TGI [3]: > 100 µM | GI50 [4]: 5.46 µM | TGI [4]: > 89.1 µM | GI50 [5]: 24.9 µM | TGI [5]: > 95.9 µM | GI50 [6]: 1.5 µM | TGI [6]: 7.52 µM | GI50 [7]: 11.9 µM | TGI [7]: > 100 µM | GI50 [8]: 46.5 µM | TGI [8]: > 100 µM | GI50 [9]: 11.2 µM | TGI [9]: > 100 µM | GI50 [10]: 2.07 µM | TGI [10]: > 76.5 µM

CS(=O)(=O)Nc1cc(-c2ccc3ncc(C#N)c(Nc4ccc(F)c(Cl)c4)c3c2)cnc1Cl
GI50 [1]: 0.275 µM | TGI [1]: 3.29 µM | GI50 [2]: 0.0354 µM | TGI [2]: 0.278 µM | GI50 [3]: 0.243 µM | GI50 [4]: 0.197 µM | TGI [4]: 10.6 µM | GI50 [5]: 0.125 µM | TGI [5]: 0.6 µM | GI50 [6]: 0.181 µM | TGI [6]: 0.82 µM | GI50 [7]: 0.133 µM | TGI [7]: 1.47 µM | GI50 [8]: 0.194 µM | TGI [8]: 0.731 µM | GI50 [9]: 0.133 µM | TGI [9]: > 100 µM | GI50 [10]: 0.125 µM | TGI [10]: 1.03 µM

CC[C@]12C=CCN3CC[C@@]4(c5ccc(OC)cc5N(C)[C@H]4[C@@](O)(C(=O)OC)[C@@H]1OC(=O)CCC(=O)O[C@H]1CC[C@H]4[C@@H]5CCC6=CC(=O)CC[C@@H]6[C@H]5CC[C@]14C)[C@@H]32
GI50 [1]: 1.7 µM | TGI [1]: > 50 µM | GI50 [2]: 1.64 µM | TGI [2]: 21.1 µM | GI50 [3]: 1.79 µM | TGI [3]: > 50 µM | GI50 [4]: 0.996 µM | TGI [4]: > 50 µM | GI50 [5]: 1.33 µM | TGI [5]: 4.21 µM | GI50 [6]: 1.69 µM | TGI [6]: > 50 µM | GI50 [7]: 2.17 µM | TGI [7]: > 50 µM | GI50 [8]: 2.04 µM | TGI [8]: > 50 µM | GI50 [9]: 1.64 µM | TGI [9]: > 50 µM

C=C(C)COc1ccc2c(c1)CCC1C2CCC2(C)C(=O)/C(=N/O)CC12 (stereo unspecified)
TGI [1]: 9.32 µM | TGI [2]: 29.1 µM | TGI [3]: 9.69 µM | TGI [4]: 10.5 µM | TGI [5]: 6.78 µM | TGI [6]: 19.3 µM | TGI [7]: 33.3 µM | TGI [8]: 22.4 µM | TGI [9]: 14 µM | TGI [10]: 15.3 µM

CC(C)c1cnc(-c2cc(Cl)ccc2F)cc1Nc1ccncc1C(=O)NC(CO)CO
GI50 [1]: 11.2 µM | TGI [1]: 24.6 µM | GI50 [2]: 17.2 µM | TGI [2]: 34.4 µM | GI50 [3]: 13.7 µM | TGI [3]: 66.3 µM | GI50 [4]: 13.8 µM | TGI [4]: 32.6 µM | GI50 [5]: 10.3 µM | TGI [5]: 27 µM | GI50 [6]: 13.1 µM | TGI [6]: 26.6 µM | GI50 [7]: 16.9 µM | TGI [7]: 32.8 µM | GI50 [8]: 19.8 µM | TGI [8]: 55.5 µM | GI50 [9]: 8.13 µM | TGI [9]: 23.7 µM | GI50 [10]: 2.87 µM | TGI [10]: 21.9 µM

Cn1c2c(c3ccccc31)CCN1C[C@@H]3CCCC[C@H]3C[C@@H]21
GI50 [1]: 5.57 µM | TGI [1]: > 100 µM | GI50 [2]: 4.22 µM | TGI [2]: > 55.8 µM | GI50 [3]: 4.36 µM | TGI [3]: > 100 µM | GI50 [4]: 3.31 µM | TGI [4]: > 100 µM | GI50 [5]: 0.964 µM | TGI [5]: 7.47 µM | GI50 [6]: 2.25 µM | TGI [6]: 6.58 µM | GI50 [7]: 6.03 µM | TGI [7]: > 100 µM | GI50 [8]: 2.82 µM | TGI [8]: 25.6 µM | GI50 [9]: 3.82 µM | TGI [9]: > 100 µM | GI50 [10]: 2.2 µM | TGI [10]: 13.7 µM

CCOC(=O)C#Cc1cccc(C#CC(=O)OCC)c1
TGI [1]: 2.42 µM | TGI [2]: 12.1 µM | TGI [3]: 7.59 µM | TGI [4]: 14.9 µM | TGI [5]: 10.9 µM | TGI [6]: 3.48 µM | TGI [7]: 9.99 µM | TGI [8]: 19.5 µM | TGI [9]: 8.21 µM | TGI [10]: 10.1 µM

CCCCCCCCCN=C(N)c1ccc(N2CCN(c3ccc(C(N)=NCCCCCCCCC)cc3)CC2)cc1
GI50 [1]: 1.95 µM | TGI [1]: 7.72 µM | GI50 [2]: 1.37 µM | TGI [2]: 3.74 µM | GI50 [3]: 3.86 µM | TGI [3]: > 50 µM | GI50 [4]: 1.74 µM | TGI [4]: 5.87 µM | GI50 [5]: 1.04 µM | TGI [5]: 3.01 µM | GI50 [6]: 1.24 µM | TGI [6]: 2.57 µM | GI50 [7]: 1.6 µM | TGI [7]: 4.27 µM | GI50 [8]: 2.65 µM | TGI [8]: 33.1 µM | GI50 [9]: 1.52 µM | TGI [9]: 7.85 µM | GI50 [10]: 3.5 µM | TGI [10]: > 50 µM

CCc1ccc(Oc2c(-c3ccc(OCCc4cccc(C(F)(F)F)c4)cc3O)n[nH]c2C(F)(F)F)cc1
GI50 [1]: 5.11 µM | TGI [1]: 11.2 µM | GI50 [2]: 5.42 µM | TGI [2]: 11.8 µM | GI50 [3]: 2.22 µM | TGI [3]: 8.05 µM | GI50 [4]: 3.7 µM | TGI [4]: 10.5 µM | GI50 [5]: 4.94 µM | TGI [5]: 11.4 µM | GI50 [6]: 8.12 µM | TGI [6]: 15.4 µM | GI50 [7]: 5.39 µM | TGI [7]: 11.4 µM | GI50 [8]: 6.57 µM | TGI [8]: 12.9 µM | GI50 [9]: 2.4 µM | TGI [9]: 8.35 µM | GI50 [10]: 2.07 µM | TGI [10]: 8.08 µM

CCCCCCCCCCCCC(O)C1CCC(C(O)CCCCC(O)CCCCCC2CC(CC(C)=O)C(=O)O2)O1 (stereo unspecified)
GI50 [1]: 1.08 µM | TGI [1]: 4.11 µM and 20.8 µM | TGI [2]: 16.5 µM | TGI [3]: 19.1 µM | TGI [4]: 4.24 µM | GI50 [5]: 5.33 µM | TGI [5]: 21.4 µM | GI50 [6]: 0.508 µM | TGI [6]: 13.5 µM | GI50 [7]: 2.85 µM | TGI [7]: 14 µM | TGI [8]: 26 µM | GI50 [9]: 2.54 µM | TGI [9]: 8.27 µM and 20.2 µM | GI50 [10]: 1.06 µM | TGI [10]: 3.81 µM and 14 µM

Cc1c(O)cccc1C(=O)N[C@@H](CSc1ccccc1)[C@H](O)CN1C[C@H]2CCCC[C@H]2C[C@H]1C(=O)NC(C)(C)C
GI50 [1]: 4.86 µM and 6.92 µM | TGI [1]: 38 µM and > 43.4 µM | GI50 [2]: 2.13 µM and 7.03 µM | TGI [2]: 8.41 µM and 18.6 µM | GI50 [3]: 5.97 µM and 5.96 µM | TGI [3]: > 37.6 µM and 23.4 µM | GI50 [4]: 2.95 µM and 3.94 µM | TGI [4]: 11.1 µM and > 35.1 µM | GI50 [5]: 1.96 µM and 2.91 µM | TGI [5]: 4.26 µM and 6.37 µM | GI50 [6]: 2.53 µM and 3.49 µM | TGI [6]: 6.97 µM and 25.5 µM | GI50 [7]: 5.68 µM and 7.33 µM | TGI [7]: 19.3 µM and 22.2 µM | GI50 [8]: 4.29 µM and 9.5 µM | TGI [8]: 23.9 µM and > 59.7 µM | GI50 [9]: 4.07 µM and 6.63 µM | TGI [9]: 12.6 µM and 18.3 µM | GI50 [10]: 3.45 µM and 3.81 µM | TGI [10]: 16.4 µM and 19.5 µM

COC(=O)C1C(C(=O)O)C2(c3ccccc3)C(=O)C1(c1ccccc1)C(c1ccc(OC)cc1)=C2c1ccc(OC)cc1 (stereo unspecified)
GI50 [1]: 18.6 µM | TGI [1]: 52.7 µM | GI50 [2]: 29.8 µM | TGI [2]: 75.7 µM | GI50 [3]: 19.7 µM | TGI [3]: 55.2 µM | GI50 [4]: 13 µM | TGI [4]: 31.3 µM | GI50 [5]: 16.1 µM | TGI [5]: 34.8 µM | GI50 [6]: 30.3 µM | TGI [6]: 77.2 µM | GI50 [8]: 25.3 µM | TGI [8]: 59.4 µM | GI50 [9]: 20.5 µM | TGI [9]: 49 µM | GI50 [10]: 25.8 µM | TGI [10]: 75 µM
